The results in this text go back to patent US20160243136A1, “PHARMACEUTICAL FORMULATIONS CONTAINING MITOCHONDRIALLY TARGETED ANTIOXIDANTS” (Mitotech SA, priority 2013, published 2016).

Experiment [1] relates to renal tubular cells (RTC). Description: In vitro inflammation model: renal tubular cells co-cultivated with bacterial lysate-activated leukocytes. The experiment is classed as cell-based, rat. The conditions noted are these: for renal cell death (Annexin V-positive): 48 hr exposure to activated leukocytes, pre-incubation with drug; for TNF release in RTC-leukocyte co-culture: activated leukocytes (LC+BL). The procedure:
Kidneys from 1-3 day old rats were excised under aseptic conditions. The tissue was blended and dissociated by collagenase treatment (0.5%, 30 min at 37° C.). The final suspension was centrifuged for 5 min at 50 g. The pellet was resuspended in about 10 ml of DMEM/F12 (Gibco, USA) supplemented with 10% FCS (Gibco, USA) and kept for 2 min, after which the supernatant was transferred to another tube and the pellet was repeatedly resuspended. After 10 min, the renal tubules were pelleted and dissociated cells remaining in the suspension were discarded. The pellet was resuspended in DMEM/F12 with 10% FCS and seeded onto 24-well plates or onto coverslips placed in 35-mm glass-bottom Petri dishes.
E. coli strain No. 85 was cultured overnight in a cultivation medium containing 1% tryptone, 0.5% yeast extract and 1% NaCl (Sigma-Aldrich, USA). The medium, containing roughly 10^9 colony-forming units (CFU) per ml, was pelleted at 300 g for 3 min. The bacterial lysate was prepared by diluting 30 ml of an overnight (ON) culture and diluting the precipitate in 3 ml of 0.9% NaCl followed by autoclaving for 1.5 hr at 120° C.
5 ml heparinized blood collected from the jugular vein of adult male rats was carefully layered over 5 ml of Ficoll-Urografin (density of 1.077 g/cm^3), and centrifuged for 30 min at 200 g. This procedure results in erythrocyte pelleting, while the mononuclear fraction of leukocytes forms an interphase ring on the Ficoll surface, which was carefully collected. Leukocytes were transferred into another tube and centrifuged for 3 min at 200 g. The resultant pellet was resuspended in 5 ml of DMEM/F12. After cell counting in a hemocytometer, the cells were diluted to a final concentration of about 1×10^5 cells per ml.
In a two-day old renal cell culture, the medium was substituted with DMEM/F12 (400 μl per well, 1600 μl per dish), supplemented with (depending on the purpose): GSK-3β inhibitor LiCl (9 mM) (Sigma-Aldrich, USA), water-soluble antioxidant Trolox (50 μM, 100 μM) (Sigma-Aldrich, USA), MTAs 10-(6-plastoquinonyl)decyl-triphenylphosphonium (SkQ1), synthesized according to Antonenko et al. (2008) Biochemistry (Mosc) 73:1273-87), 10 nM, 100 nM), and 10-(6′-plastoquinonyl) decylrhodamine 19 SkQR1), synthesized according to Antonenko (2008), (1 nM, 10 nM, or 100 nM). Renal cells were incubated for 2 hr in this medium, followed by supplementation with leukocytes or neutrophils in DMEM/F12, or DMEM/F12, alone, in the control sample (400 μl per well, 1600 μl per dish). Simultaneously, the bacterial lysate or lipopolysaccharide (100 ng/ml, LPS, Sigma-Aldrich, USA) solution in DMEM/F12 and DMEM/F12 alone in the control sample (100 μl per well, 400 μl per dish) were added. Renal cells, leukocytes (neutrophils) were co-cultivated for 24 or 48 hr with bacterial lysate or LPS. Cell death (both necrotic and apoptotic) rate was evaluated using Annexin-V FITC Kit (Invitrogen, USA).
(§1) The ROS-sensitive fluorescent probe 2,7-DCF-DA (Molecular Probes, USA) dissolved in DMEM/F12 without bicarbonate (final concentration 10 μM) was added to renal cells (500 μl per well of 24-well plate, 2 ml per dish) and incubated for 15 min at 37° C. followed by a wash with DMEM/F12 without bicarbonate. MDA was determined as in (Mihara and Uchiyama (1978) Anal. Biochem. 86:271-8). Fluorescent probe, DAF-2-DA (Calbiochem, San Diego, Calif., USA) was used for NO determination in living cells. The procedure was the same as for 2,7-DCF-DA. The nitrite/nitrate concentration (as products of NO oxidation) in culture media was determined using Nitrite/Nitrate Assay Kit (Sigma-Aldrich, USA). TNFα was determined using the kit Rat TNFα ELISA Ready-SET-Go (Ebioscience, USA).
Renal cells were imaged with an LSM510 inverted confocal microscope (Carl Zeiss Inc., Jena, Germany) with excitation at 488 nm and emission collected at 500 nm-530 nm with a pinhole diameter of 150 μm. Images were processed using ImageJ software (NIH, Bethesda, Md., USA).

For experiment [2], the system named is rat model of APN. Description: In vivo rat model of acute pyelonephritis (APN), bacteria introduced in the bladder. The procedure:
An in vivo experimental model of APN was used where bacteria are introduced in the bladder of rat (Gupta et al. (1995) J. Med. Microbiol. 43:33-36). Experiments were performed on outbred white female rats (180-200 g) fed ad libitum. Animal protocols were approved by the Institutional Review Boards. Rats were anesthetized with chloral hydrate (300 mg/kg, intraperitoneally(ip)). The animals were infected intraurethrally using a soft Intramedic non-radio-opaque polyethylene catheter (Clay Adams, USA). The inoculum (5 ml per kg, 1×10^8 CFU/ml of rat fecal bacterial composition) was injected slowly to avoid any leakage […]. Control animals were untreated. The therapeutic protocol of SkQR1 used to treat this pathology was as follows: […], with subsequent injections of the same amount of SkQR1 at 12, 24, 36 and 48 hrs; in total, each animal received 500 nmol SkQR1 per kg. […]
Kidney mitochondria were isolated by homogenization and differential centrifugation in a medium containing 250 mM sucrose, 20 mM HEPES-KOH, 1 mM EGTA and 0.1% BSA, pH7.4. Total mitochondrial protein was determined using a bicinchoninic acid protein assay kit (Sigma-Aldrich, USA). The mitochondria from cultured kidney cells were isolated by the same protocol.
as §1
The kidney was isolated immediately after sacrificing the animal and perfused with ice-cold PBS. It was then fixed in a 10% neutral buffered formalin solution, embedded in paraffin and used for histopathological examination. Five micrometer thick sections were cut, deparaffinized, hydrated, and stained with hematoxylin and eosin. The renal sections were examined in blinded fashion for inflammation and infiltration by leukocytes in the kidneys of all treated animals. A minimum of 10 fields for each kidney slide were examined and scored for pathologic severity.
The manifestation of inflammatory indicators (i.e., a number of infiltrated leukocytes in every layer and the presence of abscesses) under APN was evaluated using the following scale: 0, none; 1, 5-50 leukocytes in the view field; […]; 4, abscesses with pus-necrotic content. The distribution of inflammatory changes (i.e., comparative analysis of infiltration and abscesses) was evaluated by the following criteria: 0, none in any layer; 1, infiltration in the medullar layer; 2, infiltration reaching the cortex.
Kidney homogenates for MPO determination were centrifuged at 20000 g 15 min, the pellets were resuspended in 50 mM K-phosphate buffer containing 0.5% CTAB. Resulted samples were frozen and thawed three times and then centrifuged at 10600 g 10 min. Supernatants were analyzed for MPO activity in chromogenic reaction with o-phenylenediamine (OPD). 100 μl sample was mixed with 100 μl substrate buffer (25 mM Na-citrate, 50 mM Na-phosphate, 0.45 mg/ml OPD, 0.1% H2O2, pH 5.0) and was incubated 15 min at room temperature and then OD was detected at 492 nm.
Samples of kidney homogenates were loaded onto 15% Tris-glycine polyacrylamide gels (10-20 μg of total protein per lane). After electrophoresis, gels were blotted onto PVDF membranes (Amersham Pharmacia Biotech, UK). […]

“Also recorded” adds a separate entry of the source.

`c1ccc2c(c1)[I+]c1ccccc1-2` [DPI, diphenyleneiodonium, reference compound]: the “ROS production inside renal cells (DCF fluorescence)” value in experiment [1] (0.5 μM) is “inhibited the ROS production”.
With `[Cl-].[Li+]` [LiCl, reference compound], in experiment [1], the “renal cell death (Annexin V-positive)” value was “protected renal cells from death and its effect was more profound than of Trolox”; the “TNF release in RTC-leukocyte co-culture” value was “did not have a significant effect”. Also, the “ROS production in renal cells (DCF fluorescence)” value (“ROS production in renal cells” below) in experiment [1] (LiCl pre-treatment (9 mM)) was “had an antioxidative effect”.
Turning to `CC/N=c1/cc2oc3cc(NCC)c(C)cc3c(-c3ccccc3C(=O)OCCCCCCCCCCC3=CC(=O)C(C)=C(C)C3=O)c-2cc1C` [SkQR1, 10-(6′-plastoquinonyl) decylrhodamine 19], the “number of leukocytes in the blood” value in experiment [2] (3 days after infection, SkQR1) is listed as “prevented an elevation”. Moreover, in experiment [2] (SkQR1 100 nmoles/kg ip at 1, 12, 24, 36, 48 hr after bacteria), the “abscesses in kidneys of pyelonephritic rats” value is given as “significantly less prevalent”. Also, the “MDA concentration in whole kidney tissue” value in experiment [2] (SkQR1 100 nmoles/kg ip x5) was “significantly lower”. In addition, in experiment [2] (SkQR1 100 nmoles/kg ip x5, histology), the “leukocyte infiltration in all kidney layers and spreading of the inflammatory process” value is given as “inhibited”. Besides, the “kidney tissue concentration of TNFα” value in experiment [2] (SkQR1-treated pyelonephritic rats vs APN rats without SkQR1) was “lower than in APN rats without SkQR1”. In addition, in experiment [2] (SkQR1-treated rats), the “activation of pro-inflammatory signaling pathways in peripheral leukocytes” value is recorded as “suppressed” and the “other inflammation markers in blood (FIG. 8A-8C)” value is “decreased”. The animal survival entry in experiment [2] (SkQR1 during first two days after infection) is “significantly greater”. Further, in experiment [2] (Western blot), the “Bcl-2 changes in isolated kidney mitochondria (weaker 26 kD band, stronger 15 kD band)” value is “diminished”. Besides, the “level of IKB in leukocytes” value in experiment [2] (Western blot, lower in untreated pyelonephritic rats) is on record as “lower in untreated pyelonephritic rats but not in SkQR1-treated rats”. Besides, the “Bcl-2 level in total kidney homogenates” value in experiment [2] (Western blot, lowering seen with pyelonephritis) is reported as “absent in pyelonephritic rats receiving SkQR1”. In experiment [2] (activated under APN), the “expression of toll receptors in different regions of the kidney” value is listed as “normal expression”. Moreover, the “tissue activity of myeloperoxidase (MPO), index of neutrophil infiltration” value in experiment [2] (kidney, SkQR1 100 nmoles/kg ip x5) is “significantly inhibited”. In addition, the “ROS production (DCF fluorescence) in blood leukocytes” value in experiment [2] (leukocytes from pyelonephritic rats receiving SkQR1 vs untreated) is “lower than in untreated animals”. Further, in experiment [1] (10 nM, pretreatment 2 hr, co-cultivation with activated leukocytes), the “ROS production in renal cells” value was “suppression of ROS production after co-cultivation with activated leukocytes to levels close to those observed on controls”. In experiment [1], the “renal cell death (Annexin V-positive)” value is recorded as “more pronounced than that afforded by the traditional water-soluble antioxidant, Trolox; also recorded: highest efficiency” and the “TNF release in RTC-leukocyte co-culture” value was “did not have a significant effect”.
With `Cc1c(C)c2c(c(C)c1O)CCC(C)(C(=O)O)O2` (centres unmarked) [Trolox, reference compound], the “ROS production in renal cells” value in experiment [1] (100 μM, pretreatment 2 hr, co-cultivation with activated leukocytes) is “suppression of ROS production after co-cultivation with activated leukocytes to levels close to those observed on controls”. Besides, the “TNF release in RTC-leukocyte co-culture” value in experiment [1] is “did not have a significant effect”.
